Results: PMC3566779 (The Journal of neuroscience : the official journal of the …, 2012)

How the values were obtained:
TRPA1 = TRPA1 (Homo sapiens, UniProt O75762); test: TRPA1 aequorin assay, allylisothiocyanate activation; format: cell-based; settings: read-out: IC50 for TRPA1; 80 μM allylisothiocyanate as agonist
TRPV4 = TRPV4 (Homo sapiens, UniProt Q9HBA0); test: TRPV4 aequorin assay, 4α-PDD activation; format: cell-based; settings: read-out: IC50 for TRPV4; 1 μM 4α-PDD as agonist
TRPV1 = TRPV1 (Homo sapiens, UniProt Q8NER1); test: TRPV1 assay, capsaicin activation; format: cell-based
Sequence of TRPV1 (Q8NER1 whole entry, species assumed): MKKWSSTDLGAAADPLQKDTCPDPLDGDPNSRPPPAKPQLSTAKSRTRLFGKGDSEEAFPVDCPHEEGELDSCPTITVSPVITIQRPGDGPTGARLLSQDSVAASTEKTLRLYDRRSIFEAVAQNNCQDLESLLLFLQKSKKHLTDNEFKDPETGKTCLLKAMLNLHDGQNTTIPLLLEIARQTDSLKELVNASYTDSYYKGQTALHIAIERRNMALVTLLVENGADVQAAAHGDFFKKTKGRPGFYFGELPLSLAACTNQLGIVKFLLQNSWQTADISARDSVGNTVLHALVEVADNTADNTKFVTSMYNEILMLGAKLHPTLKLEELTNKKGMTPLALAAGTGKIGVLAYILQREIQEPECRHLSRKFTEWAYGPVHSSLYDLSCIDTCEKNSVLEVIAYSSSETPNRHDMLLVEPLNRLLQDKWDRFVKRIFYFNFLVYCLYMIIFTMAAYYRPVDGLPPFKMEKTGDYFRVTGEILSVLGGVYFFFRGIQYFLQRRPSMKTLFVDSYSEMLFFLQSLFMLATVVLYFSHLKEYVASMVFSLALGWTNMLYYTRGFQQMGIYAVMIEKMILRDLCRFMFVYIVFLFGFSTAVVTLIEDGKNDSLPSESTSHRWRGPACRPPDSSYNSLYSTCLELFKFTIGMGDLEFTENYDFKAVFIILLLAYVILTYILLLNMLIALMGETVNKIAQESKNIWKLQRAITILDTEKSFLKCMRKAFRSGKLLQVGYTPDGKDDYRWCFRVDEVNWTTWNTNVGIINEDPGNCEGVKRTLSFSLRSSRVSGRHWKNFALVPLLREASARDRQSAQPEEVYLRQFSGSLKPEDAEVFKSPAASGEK

Wistar rats [1] = test: BAT thermometry; format: in vivo, rat; settings: 1 mg/kg i.v. at 32°C
Trpm8−/− mice = test: Abdominal Tb in Trpm8−/− mice, telemetry setup; format: in vivo, mouse; settings: Ta 26°C
Trpm8+/+ mice = test: Abdominal Tb in Trpm8+/+ mice, telemetry setup; format: in vivo, mouse; settings: Ta 26°C
Wistar rats [2] = test: Deep; format: in vivo, rat
Wistar rats [3] = test: Preferred Ta and abdominal Tb in rats, thermogradient setup; format: in vivo, rat
rat TRPM8 = rat TRPM8 (Rattus norvegicus, UniProt Q8R455); test: Aequorin luminescence Ca2+ assay, CHO cells stably expressing rat TRPM8; format: cell-based
Sequence of rat TRPM8 (Q8R455 whole entry): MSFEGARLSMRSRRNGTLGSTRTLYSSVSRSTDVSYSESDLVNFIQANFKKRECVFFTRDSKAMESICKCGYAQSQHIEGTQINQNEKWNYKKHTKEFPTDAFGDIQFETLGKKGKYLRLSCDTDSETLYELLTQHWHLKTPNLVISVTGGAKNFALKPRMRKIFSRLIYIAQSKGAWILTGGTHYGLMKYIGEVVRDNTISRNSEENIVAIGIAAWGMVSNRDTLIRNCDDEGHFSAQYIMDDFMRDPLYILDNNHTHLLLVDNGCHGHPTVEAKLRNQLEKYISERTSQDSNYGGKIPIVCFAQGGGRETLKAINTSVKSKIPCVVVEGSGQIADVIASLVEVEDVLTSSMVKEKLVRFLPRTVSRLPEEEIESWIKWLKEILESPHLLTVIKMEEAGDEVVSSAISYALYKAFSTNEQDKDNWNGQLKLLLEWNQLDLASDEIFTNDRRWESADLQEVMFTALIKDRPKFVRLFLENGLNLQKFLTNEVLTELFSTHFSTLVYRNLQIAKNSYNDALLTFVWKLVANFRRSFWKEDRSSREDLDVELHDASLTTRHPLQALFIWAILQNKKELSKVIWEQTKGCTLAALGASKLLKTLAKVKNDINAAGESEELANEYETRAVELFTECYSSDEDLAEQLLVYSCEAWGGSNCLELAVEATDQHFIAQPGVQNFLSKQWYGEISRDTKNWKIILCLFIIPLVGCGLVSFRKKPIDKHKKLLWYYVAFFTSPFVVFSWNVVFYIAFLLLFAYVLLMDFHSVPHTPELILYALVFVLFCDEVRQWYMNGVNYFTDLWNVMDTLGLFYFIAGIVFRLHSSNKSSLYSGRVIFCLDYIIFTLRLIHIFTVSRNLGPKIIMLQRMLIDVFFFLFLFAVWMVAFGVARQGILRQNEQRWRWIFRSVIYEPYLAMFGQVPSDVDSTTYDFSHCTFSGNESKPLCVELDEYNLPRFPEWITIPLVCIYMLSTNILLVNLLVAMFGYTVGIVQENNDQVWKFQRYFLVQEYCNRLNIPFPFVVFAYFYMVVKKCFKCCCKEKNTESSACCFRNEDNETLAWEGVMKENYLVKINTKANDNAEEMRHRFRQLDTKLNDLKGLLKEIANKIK

[4] = tested on: c-Fos expression in the lateral parabrachial nucleus; test: Cold-induced c-Fos immunohistochemistry in the lateral parabrachial nucleus; format: in vivo, rat; settings: rats, 6 mg/kg i.v. pretreatment, 2-h cold exposure (4°C)
other TRP channels = test: TRP selectivity assays in CHO cells; format: cell-based; settings: read-out: IC50, block of other TRP channels
Wistar rats [5] = test: Colonic Tb and oxygen consumption in rats, respirometry setup; format: in vivo, rat; settings: 6 mg/kg i.v. over 20 min, Ta 19°C
[6] = tested on: native TRPM8 channels in murine primary sensory neurons; test: Ratiometric Ca2+ imaging of trigeminal or dorsal root ganglion neurons; format: cell-based, mouse
Wistar rats [7] = settings: TRPV1 antagonist; ref Garami et al., 2010; Steiner et al., 2007; cited from earlier work

Sequence of TRPV4 (Q9HBA0 whole entry, species assumed): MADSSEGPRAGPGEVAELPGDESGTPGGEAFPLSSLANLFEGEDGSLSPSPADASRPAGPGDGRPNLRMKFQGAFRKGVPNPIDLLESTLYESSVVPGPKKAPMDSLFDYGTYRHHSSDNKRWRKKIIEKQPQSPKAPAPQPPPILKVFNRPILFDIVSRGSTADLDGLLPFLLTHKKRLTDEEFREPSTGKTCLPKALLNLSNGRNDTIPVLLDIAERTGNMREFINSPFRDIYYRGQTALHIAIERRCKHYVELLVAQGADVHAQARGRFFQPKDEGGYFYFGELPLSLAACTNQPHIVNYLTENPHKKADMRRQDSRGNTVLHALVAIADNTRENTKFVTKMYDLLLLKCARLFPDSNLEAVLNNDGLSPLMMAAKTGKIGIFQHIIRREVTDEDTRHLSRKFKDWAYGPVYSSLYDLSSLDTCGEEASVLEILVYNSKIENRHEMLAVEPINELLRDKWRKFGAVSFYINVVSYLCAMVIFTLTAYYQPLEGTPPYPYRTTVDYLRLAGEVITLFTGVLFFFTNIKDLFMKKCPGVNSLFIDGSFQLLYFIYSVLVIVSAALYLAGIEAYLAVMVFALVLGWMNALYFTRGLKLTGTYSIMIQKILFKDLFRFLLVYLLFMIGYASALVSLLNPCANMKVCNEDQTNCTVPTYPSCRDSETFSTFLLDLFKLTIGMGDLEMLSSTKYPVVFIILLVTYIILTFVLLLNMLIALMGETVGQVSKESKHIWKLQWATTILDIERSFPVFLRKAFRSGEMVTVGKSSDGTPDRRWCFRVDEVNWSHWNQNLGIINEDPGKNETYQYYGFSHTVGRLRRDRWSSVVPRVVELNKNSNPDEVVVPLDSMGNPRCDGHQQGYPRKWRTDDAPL
Sequence of TRPA1 (O75762 whole entry, species assumed): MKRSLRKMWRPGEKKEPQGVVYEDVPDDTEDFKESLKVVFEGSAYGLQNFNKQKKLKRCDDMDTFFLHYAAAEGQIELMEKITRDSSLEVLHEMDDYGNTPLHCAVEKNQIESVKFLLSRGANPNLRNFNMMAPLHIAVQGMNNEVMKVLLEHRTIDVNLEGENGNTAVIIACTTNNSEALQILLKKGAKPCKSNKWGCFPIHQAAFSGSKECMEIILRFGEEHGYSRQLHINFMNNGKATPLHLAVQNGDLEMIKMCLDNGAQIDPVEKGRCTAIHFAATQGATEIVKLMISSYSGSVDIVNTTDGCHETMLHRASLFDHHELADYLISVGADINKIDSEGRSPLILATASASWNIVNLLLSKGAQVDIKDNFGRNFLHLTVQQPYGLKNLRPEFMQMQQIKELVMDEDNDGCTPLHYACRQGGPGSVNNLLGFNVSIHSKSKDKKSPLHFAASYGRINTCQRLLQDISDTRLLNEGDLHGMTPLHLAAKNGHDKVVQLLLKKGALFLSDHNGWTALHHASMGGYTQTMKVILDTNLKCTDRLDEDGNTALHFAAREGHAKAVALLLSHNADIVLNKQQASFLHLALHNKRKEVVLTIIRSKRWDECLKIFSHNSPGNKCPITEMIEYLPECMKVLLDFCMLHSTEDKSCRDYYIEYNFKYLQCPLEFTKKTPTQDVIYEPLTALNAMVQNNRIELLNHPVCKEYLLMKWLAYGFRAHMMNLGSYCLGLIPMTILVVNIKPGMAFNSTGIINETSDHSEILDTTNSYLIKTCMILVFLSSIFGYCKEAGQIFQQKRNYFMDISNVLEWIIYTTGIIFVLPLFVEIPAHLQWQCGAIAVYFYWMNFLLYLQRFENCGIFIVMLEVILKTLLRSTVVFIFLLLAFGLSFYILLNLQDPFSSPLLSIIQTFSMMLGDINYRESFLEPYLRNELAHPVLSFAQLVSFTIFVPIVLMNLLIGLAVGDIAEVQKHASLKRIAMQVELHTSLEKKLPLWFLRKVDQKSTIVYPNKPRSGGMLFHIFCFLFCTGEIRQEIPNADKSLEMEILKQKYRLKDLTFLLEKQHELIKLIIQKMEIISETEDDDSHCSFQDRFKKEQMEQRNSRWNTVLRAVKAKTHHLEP

Cl.Cl.Cl.Cl.Cl.Cl.N.N.N.N.N.N.N.N.N.N.N.N.N.N.[O-2].[O-2].[Ru+3].[Ru+3].[Ru+4] [ruthenium red]
IC50 (TRPA1): 367 nM
IC50 (TRPV4): 24 nM

CC(C)(C)c1ccc(/C=C/C(=O)Nc2ccc3c(c2)OCCO3)cc1 [AMG9810, (E)-3-(4-t-butylphenyl)-N-(2,3-dihydrobenzo[b][1,4]dioxin-6-yl)acrylamide]
IC50 (TRPV1): 86 nM

COc1cc(CN(CCN)C(=O)c2cccs2)ccc1OCc1ccccc1.Cl [M8-B, N-(2-aminoethyl)-N-(4-(benzyloxy)-3-methoxybenzyl)thiophene-2-carboxamide hydrochloride]
BAT thermogenic response to cold (Wistar rats [1]; then 11°C, p = 0.105): tended to be less pronounced
Nadir of Tb (Wistar rats [1]; then transferred to 11°C, at 150 min): ~ 36.2 °C
Effect on abdominal Tb (Trpm8−/− mice; 6 mg/kg i.p.): not affected
Decrease in abdominal Tb (Trpm8+/+ mice; 6 mg/kg i.p.): ~ 0.8 °C
Heat loss index (HLI) when Tb was 37.5°C (Wistar rats [2]; 1 mg/kg i.v. at 32°C then 21°C, controls HLI ~0): ~ 0.4
Inter-treatment Tb difference (M8-B vs vehicle) (Wistar rats [2]; 1 mg/kg i.v. at Ta 32°C, then transferred to 11°C): exceeded 1 °C
Inter-treatment Tb difference (M8-B vs vehicle) (Wistar rats [2]; 1 mg/kg i.v. at Ta 32°C, then transferred to 14°C): exceeded 1 °C
Delay of the development of tail skin vasoconstriction (Wistar rats [2]; 1 mg/kg i.v. at Ta 32°C, then transferred to 21°C): ~ 5 min
Effect on Tb (Wistar rats [2]; 1 mg/kg i.v. over 40 min at Ta 32°C, then transferred to 21°C): significant decrease in Tb
Changes in Tb compared to vehicle (Wistar rats [2]; 1 mg/kg i.v., constant Ta 15°C): no significant changes
Effect on Tb (Wistar rats [2]; 1 mg/kg i.v., constant Ta 19°C, data not shown): did not affect Tb
Changes in Tb compared to vehicle (Wistar rats [2]; 1 mg/kg i.v., constant Ta 32°C): no significant changes
Tail Tsk at which M8-B caused a decrease in Tb (threshold, two-line model) (Wistar rats [2]; 1 mg/kg i.v., experiments of Fig. 6B–H): ≤ 23.2 °C
Effect on Tb (Wistar rats [2]; 2.5 mg/kg intracerebroventricularly, Ta 19°C): no effect
Effect on Tb (Wistar rats [2]; 2.5 mg/kg intrathecally, Ta 19°C): no effect
Decrease in colonic Tb compared to vehicle (Wistar rats [2]; 6 mg/kg i.v. over 20 min, Ta 19°C): ~ 0.9 °C
Effect on Tb (Wistar rats [2]; 6 mg/kg intrathecally, Ta 19°C): effective in decreasing Tb
Threshold intravenous dose for a significant decrease in deep Tb (Wistar rats [2]; i.v., Ta 19°C): 2.5 mg/kg
Effect on hyperthermic response to menthol (Wistar rats [3]; rats, M8-B 1 mg/kg i.v. pretreatment, p = 0.0009): significantly attenuated
Effect on warmth-seeking response to menthol (Wistar rats [3]; rats, M8-B 1 mg/kg i.v. pretreatment, p = 0.096): tended to attenuate
IC50 (rat TRPM8; IC50, inhibition of rat TRPM8 activation by cold, cold (10°C)): 7.8 ± 1.1 nM
IC50 (rat TRPM8; IC50, inhibition of rat TRPM8 activation by icilin, icilin (1 μM)): 26.9 ± 12.1 nM
Decrease in number of cold-induced c-Fos-positive neurons, LPBE ([4]; p = 0.027): 48%
Decrease in number of cold-induced c-Fos-positive neurons, LPBC ([4]; p = 0.178): 41%
IC50 (other TRP channels): > 20000 nM
VO2 within the first hour after infusion (Wistar rats [5]; from 19 ml/kg/min): ~15 mL/min/kg
Colonic Tb within the first hour after infusion (Wistar rats [5]; from ~37.3°C): ~ 36.5 °C
Number of cold-responsive neurons ([6]; M8-B 10 μM, cold (15°C), 19 ± 3% without treatment): 4 ± 1%
Number of neurons responsive to menthol ([6]; menthol 250 μM): significantly decreased

C=C(C)[C@]12C[C@@H](C)[C@@]34O[C@](Cc5ccccc5)(O[C@@H]1[C@@H]3C=C(COC(=O)Cc1ccc(O)c(OC)c1)C[C@]1(O)C(=O)C(C)=C[C@@H]41)O2 [RTX, resiniferatoxin, reference compound]
Decrease in Tb (Trpm8−/− mice; 150 ng/kg i.p.): ~ 2.5 °C
Effect on abdominal Tb (Trpm8+/+ mice; 150 ng/kg i.p.): readily produces hypothermia

CC1CCC(C(C)C)C(O)C1 (stereo not drawn) [menthol, reference compound]
Rise in Tb after menthol (Wistar rats [3]; rats pre-infused with vehicle, 10 g of 0.5% menthol ointment epidermally): ~ 1 °C

O=C(/C=C/c1ccc(C(F)(F)F)nc1N1CCCCC1)Nc1cccc2c1CC(O)CC2 (stereo not drawn) [AMG0347]
Thermal response (Wistar rats [7]): cause hyperthermia
